Test results published in patent US7252950B1, “Assays for detecting modulators of cytoskeletal function” (priority 1997, dated 2007).

Legend:
rabbit kidney ATPase = test: ATPase activity assay, specificity panel; type: biochemical; settings: highest used inhibitor concentration 136 μM, read-out: Concentration causing 50% inhibition of enzymatic activity (C50)
Description: (§1) One such ATPase assay is described in the examples below. In one preferred embodiment, the ATPase activity assay utilizes 0.3 M PCA (perchloric acid) and malachite green reagent (8.27 mM sodium molybdate II, 0.33 mM malachite green oxalate, and 0.8 mM Triton X-100). To perform the assay, 10 μL of reaction is quenched in 90 μl of cold 0.3 M PCA. Phosphate standards are used so data can be converted to mM inorganic phosphate released.
(§2) When all reactions and standards have been quenched in PCA, 100 μl of malachite green reagent is added to the to relevant wells in e.g., a microtiter plate. The mixture is developed for 10-15 minutes and the plate is read at an absorbance of 650 nm. If phosphate standards were used, absorbance readings can be converted to mM Pi and plotted over time.
(§3) […]

[1] = target: T1, microtubule stimulated ATPase of kinesin (Drosophila melanogaster, UniProt P17210); test: Microtubule-stimulated kinesin ATPase, steady state kinetics; type: biochemical
T1 construct: kinesin heavy chain fragment containing amino acids 5-351 of the wild type protein; hexahistidine (C); made in house; host or cells: bacterial cells (IPTG induced)
T1 sequence (P17210 5-351): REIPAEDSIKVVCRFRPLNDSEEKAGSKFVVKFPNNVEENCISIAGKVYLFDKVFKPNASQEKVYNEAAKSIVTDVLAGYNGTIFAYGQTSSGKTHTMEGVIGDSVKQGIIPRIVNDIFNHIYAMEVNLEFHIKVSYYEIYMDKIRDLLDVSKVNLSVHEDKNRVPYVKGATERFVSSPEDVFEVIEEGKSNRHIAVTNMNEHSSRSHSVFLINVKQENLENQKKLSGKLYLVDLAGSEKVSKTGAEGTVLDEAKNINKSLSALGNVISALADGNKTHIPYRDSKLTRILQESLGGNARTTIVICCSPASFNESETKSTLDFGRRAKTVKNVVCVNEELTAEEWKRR
Description: (§4) All kinetic and binding measurements were performed on a bacterially expressed Drosophila kinesin heavy chain fragment containing amino acids 5-351 of the wild type protein and a hexahistidine tag at the C-terminus. Protein was purified from the soluble fraction of IPTG induced bacterial cells by a single round of affinity chromatography on Ni—NTA-agarose (Qiagen), concentrated by microfiltration, and frozen in small aliquots in liquid nitrogen.
(§5) Initial rate measurements were done at room temperature using a malachite green assay (Geladopoulos et al. (1991) Anal. Biochem., 192: 112-116) modified to work in 96 well microtiter plates and scored on a plate reader at 650 nm. ATP concentration dependence and basal ATPase rate were determined by a coupled enzymatic assay with pyruvate kinase and lactate dehydrogenase monitoring changes in absorbance at 340 nm. Phosphate standards (650 μM-7 μM) were included with each reading.
Extracts from 268 marine sponges were initially tested for their ability to disrupt normal behavior of microtubules in a gliding motility assay. This screening method allowed immediate distinction between substances that affected microtubule movement and those that caused microtubule depolymerization or breakage. Active extracts from the initial screening were then tested for inhibition of the microtubule-stimulated kinesin ATPase.

basal kinesin ATPase = target: T2, basal kinesin ATPase (Drosophila melanogaster, UniProt P17210); test: Basal (non microtubule-stimulated) kinesin ATPase rate, coupled enzymatic assay; type: biochemical; settings: absence of microtubules; up to 136 μM (the highest tested)
T2 construct: kinesin heavy chain fragment containing amino acids 5-351 of the wild type protein; hexahistidine (C); made in house; host or cells: bacterial cells (IPTG induced)
T2 sequence (P17210 5-351): T1 sequence (P17210 5-351)
Description: as §4, §5
In contrast, varying the ATP concentration had no effect on the overall shape of the kinetic curves. […] An additional argument against adociasulfate binding at the nucleotide pocket comes from the lack of an inhibitory effect on the basal, non microtubule-stimulated rate of the kinesin ATPases. If adociasulfate interfered with nucleotide binding, or locked the enzyme in a particular nucleotide-bound state, ATP turnover in the absence of microtubule should be decreased.

Myosin II (EDTA) = test: ATPase activity assay, specificity panel (EDTA activated ATPase); type: biochemical; settings: read-out: Concentration causing 50% inhibition of enzymatic activity (C50)
Description: as §1, §2, §3

[2] = target: T3, kinesin binding to microtubules (Drosophila melanogaster, UniProt P17210); test: Kinesin-microtubule co-sedimentation assay with AMP-PNP; settings: co-sedimentation in the presence of AMP-PNP
T3 construct: kinesin heavy chain fragment containing amino acids 5-351 of the wild type protein; hexahistidine (C); made in house; host or cells: bacterial cells (IPTG induced)
T3 sequence (P17210 5-351): T1 sequence (P17210 5-351)
Description: as §4
This was tested by performing a kinesin-microtubule co-sedimentation assay in the presence of a nonhydrolysable ATP analog, AMP-PNP, with or without adociasulfate.

TI-γ = test: ATPase activity assay, specificity panel; type: biochemical, Thermomyces lanuginosus; settings: at 2 μM tubulin, read-out: Concentration causing 50% inhibition of enzymatic activity (C50)
Description: as §1, §2
TI-γ (a kinesin superfamily member from the fungus Thermomyces lanuginosus) was adsorbed to a glass coverslip and supplemented with a mixture of microtubules, 2 mM Mg-ATP, and sponge extracts in DMSO (5% final concentration). Motility was scored visually on a Zeiss Axioplan microscope sat up for DIC and fitted with an Argus 10 video processor (Hamamatsu).
Initial rate measurements were done at room temperature using a malachite green assay (Geladopoulos et al. (1991) Anal. Biochem., 192: 112-116) modified to work in 96 well microtiter plates and scored on a plate reader at 650 nm. […]

kinesin (K-ADP state) = target: T4, kinesin (K-ADP state) (Drosophila melanogaster, UniProt P17210); test: ADP release from kinesin; type: biochemical; settings: varying concentrations of adociasulfate
T4 construct: kinesin heavy chain fragment containing amino acids 5-351 of the wild type protein; hexahistidine (C); made in house; host or cells: bacterial cells (IPTG induced)
T4 sequence (P17210 5-351): T1 sequence (P17210 5-351)
Description: as §4
The percent of ADP released from the enzyme was determined by the methods of Hackney (see, e.g., Hackney (1994) J. Biol. Chem., […]: 16508-16511). Briefly, 80 μM kinesin was preincubated with α-^32PATP at room temperature for 15 min and than stored on ice. 1 μl aliquots of that mixture were diluted into 100 μl of “chase mix” containing 0.5 mg/ml pyruvate kinase, 2 mM phosphoenalpyruvate, and varying concentrations of adociasulfate. […] The amount of ADP that became accessible to pyruvate kinase and was converted to ATP was determined by a thin layer chromatography on PEI-cellulose followed by phosphoimager quantitation.
Microtubule binding to kinesin induced 1,000-fold stimulation of the basal ATPase rate, owing primarily to accelerated ADP release. […] The adociasulfate concentration at 50% of maximum burst is much higher than the K1 determined in steady state microtubule competition assays. […]

CC1(C)CCC[C@]2(C)O[C@H]3CC[C@@]4(C)[C@@H](CC[C@]5(C)[C@@H]4CC[C@]4(C)c6c(OS(=O)(=O)O)ccc(OS(=O)(=O)O)c6C[C@@H]54)[C@]3(C)CC[C@@H]12 [adociasulfate]
IC50 (rabbit kidney ATPase): > 136 µM
Mode of inhibition ([1]; steady state kinetic measurements, varying microtubule concentration): competitive with microtubules
Vmax ([1]; varying ATP concentration, higher adociasulfate concentrations): progressively lower
Effect on basal ATPase rate (basal kinesin ATPase): did not inhibit the basal ATPase rate
IC50 (Myosin II (EDTA)): 75 µM
Effect on binding of kinesin to microtubules [2]: abolished binding of kinesin to microtubules
IC50 (TI-γ): 2 µM
ADP release from kinesin (kinesin (K-ADP state)): bursts of ADP release were observed
